In ChEMBL document CHEMBL5537150, “Synthesis of melampomagnolide B derivatives as potential anti-Triple Negative Breast Cancer agents” (Eur J Med Chem, 2024):
The source made the active and inactive calls. No cut-off for these calls is given here.

Experiments:
[1] = test system: MDA-MB-231; assay: Antiproliferative activity against human MDA-MB-231 cells assessed as inhibition of cell growth incubated for 72 hrs by MTT assay; assay type: functional, cell-based; conditions: MDA-MB-231, 72 h
[2] = test system: SUM-159-PT; assay: Antiproliferative activity against human SUM159 cells assessed as inhibition of cell growth incubated for 72 hrs by MTT assay; assay type: functional, cell-based
[3] = test system: MDA-MB-468; assay: Antiproliferative activity against human MDA-MB-468 cells assessed as inhibition of cell growth incubated for 72 hrs by MTT assay; assay type: functional, cell-based; conditions: MDA-MB-468, 72 h
[4] = test system: MCF7; assay: Antiproliferative activity against human MCF7 cells assessed as inhibition of cell growth incubated for 72 hrs by MTT assay; assay type: functional, cell-based; conditions: MCF7, 72 h
[5] = test system: 4T1; assay: Antiproliferative activity against mouse 4T1 cells assessed as inhibition of cell growth incubated for 72 hrs by MTT assay; assay type: functional, cell-based; conditions: 4T1, 72 h
[6] = test system: NIH3T3; assay: Cytotoxicity against mouse 3T3 cells at 1 uM incubated for 72 hrs by MTT assay; assay type: toxicity, cell-based; conditions: nih3t3, 72 h
[7] = test system: MDA-MB-468; assay: Antimigratory activity in human MDA-MB-468 cells assessed as reduction in number of migrated cells incubated for 48 hrs by crystal violet staining based transwell assay; assay type: functional, cell-based
[8] = test system: MDA-MB-231; assay: Antimigratory activity in human MDA-MB-231 cells assessed as reduction in number of migrated cells incubated for 48 hrs by crystal violet staining based transwell assay; assay type: functional, cell-based
[9] = test system: MDA-MB-468; assay: Antimigratory activity in human MDA-MB-468 cells assessed as downregulation of Vimentin protein expression incubated for 48 hrs by Western blotting analysis; assay type: functional, cell-based
[10] = test system: MDA-MB-468; assay: Antimigratory activity in human MDA-MB-468 cells assessed as downregulation of N-cadherin protein expression incubated for 48 hrs by Western blotting analysis; assay type: functional, cell-based
[11] = test system: MDA-MB-231; assay: Antimigratory activity in human MDA-MB-231 cells assessed as downregulation of N-cadherin protein expression incubated for 48 hrs by Western blotting analysis; assay type: functional, cell-based
[12] = test system: MDA-MB-231; assay: Antimigratory activity in human MDA-MB-231 cells assessed as downregulation of Vimentin protein expression incubated for 48 hrs by Western blotting analysis; assay type: functional, cell-based
[13] = test system: MDA-MB-468; assay: Induction of apoptosis in human MDA-MB-468 cells at 0.2 uM incubated for 48 hrs by annexin-V-APC/PI staining based flow cytometric analysis (reference value: 5.65 +/- 2.76 %); assay type: functional
[14] = test system: MDA-MB-468; assay: Induction of apoptosis in human MDA-MB-468 cells at 0.5 uM incubated for 48 hrs by annexin-V-APC/PI staining based flow cytometric analysis (reference value: 5.65 +/- 2.76 %); assay type: functional
[15] = test system: MDA-MB-468; assay: Induction of apoptosis in human MDA-MB-468 cells at 1 uM incubated for 48 hrs by annexin-V-APC/PI staining based flow cytometric analysis (reference value: 5.65 +/- 2.76 %); assay type: functional
[16] = test system: MDA-MB-468; assay: Induction of apoptosis in human MDA-MB-468 cells at 2 uM incubated for 48 hrs by annexin-V-APC/PI staining based flow cytometric analysis (reference value: 5.65 +/- 2.76 %); assay type: functional
[17] = test system: MDA-MB-468; assay: Induction of apoptosis in human MDA-MB-468 cells at 5 uM incubated for 48 hrs by annexin-V-APC/PI staining based flow cytometric analysis (reference value: 5.65 +/- 2.76 %); assay type: functional
[18] = test system: MDA-MB-231; assay: Induction of apoptosis in human MDA-MB-231 cells at 0.2 uM incubated for 48 hrs by annexin-V-APC/PI staining based flow cytometric analysis (reference value: 5.9 +/- 0.26 %); assay type: functional
[19] = test system: MDA-MB-231; assay: Induction of apoptosis in human MDA-MB-231 cells at 0.5 uM incubated for 48 hrs by annexin-V-APC/PI staining based flow cytometric analysis (reference value: 5.9 +/- 0.26 %); assay type: functional
[20] = test system: MDA-MB-231; assay: Induction of apoptosis in human MDA-MB-231 cells at 1 uM incubated for 48 hrs by annexin-V-APC/PI staining based flow cytometric analysis (reference value: 5.9 +/- 0.26 %); assay type: functional
[21] = test system: MDA-MB-231; assay: Induction of apoptosis in human MDA-MB-231 cells at 2 uM incubated for 48 hrs by annexin-V-APC/PI staining based flow cytometric analysis (reference value: 5.9 +/- 0.26 %); assay type: functional
[22] = test system: MDA-MB-231; assay: Induction of apoptosis in human MDA-MB-231 cells at 5 uM incubated for 48 hrs by annexin-V-APC/PI staining based flow cytometric analysis (reference value: 5.9 +/- 0.26 %); assay type: functional
[23] = test system: MDA-MB-231; assay: Induction of apoptosis in human MDA-MB-231 cells assessed as downregulation of BCL-2 protein expression incubated for 48 hrs by Western blotting analysis; assay type: functional, cell-based
[24] = test system: MDA-MB-231; assay: Induction of apoptosis in human MDA-MB-231 cells assessed as downregulation of MCL-1 protein expression incubated for 48 hrs by Western blotting analysis; assay type: functional, cell-based
[25] = test system: MDA-MB-231; assay: Induction of apoptosis in human MDA-MB-231 cells assessed as downregulation of BCL-xl protein expression incubated for 48 hrs by Western blotting analysis; assay type: functional, cell-based
[26] = test system: MDA-MB-231; assay: Induction of apoptosis in human MDA-MB-231 cells assessed as upregulation of Bax protein expression incubated for 48 hrs by Western blotting analysis; assay type: functional, cell-based
[27] = test system: MDA-MB-231; assay: Inhibition of NF-kappaB signalling pathway in human MDA-MB-231 cells assessed as downregulation of p65 phosphorylation at 0.5 to 2 uM incubated for 48 hrs by Western blotting analysis; assay type: cell-based; conditions: dose 0.5-2 µM
[28] = test system: MDA-MB-231; assay: Inhibition of NF-kappaB signalling pathway in human MDA-MB-231 cells assessed as downregulation of IkappaBalpha phosphorylation at 0.5 to 2 uM incubated for 48 hrs by Western blotting analysis; assay type: cell-based; conditions: dose 0.5-2 µM
[29] = test system: MDA-MB-231; assay: Inhibition of NF-kappaB signalling pathway in human MDA-MB-231 cells assessed as effect on total p65 protein level at 0.2 to 2 uM incubated for 48 hrs by Western blotting analysis; assay type: cell-based; conditions: dose 0.2-2 µM
[30] = test system: MDA-MB-231; assay: Inhibition of NF-kappaB signalling pathway in human MDA-MB-231 cells assessed as upregulation of cytoplasmic p65 expression at 0.2 to 2 uM incubated for 48 hrs by Western blotting analysis; assay type: cell-based; conditions: dose 0.2-2 µM
[31] = test system: MDA-MB-231; assay: Inhibition of NF-kappaB signalling pathway in human MDA-MB-231 cells assessed as downregulation of nuclear p65 expression at 0.2 to 2 uM incubated for 48 hrs by Western blotting analysis; assay type: cell-based; conditions: dose 0.2-2 µM
[32] = test system: MDA-MB-231; assay: Inhibition of NF-kappaB signalling pathway in human MDA-MB-231 cells assessed as inhibition of p65 nuclear translocation at 0.2 to 2 uM incubated for 48 hrs by Western blotting analysis; assay type: cell-based; conditions: dose 0.2-2 µM

SMILES: C=C1C(=O)O[C@H]2[C@H]1C(COC(=O)CCC(=O)O)C/C=C\CC[C@@]1(C)O[C@@]21C (stereo not given in full)
- IC50 [1]: > 50 µM

SMILES: C=C1C(=O)O[C@H]2[C@H]1CC/C(C(=O)O)=C\CC[C@@]1(C)O[C@@H]21
- IC50 [1]: > 50 µM

SMILES: C=C1C(=O)O[C@H]2[C@H]1C(COC(=O)CCCC(=O)O)C/C=C\CC[C@@]1(C)O[C@@H]21 (stereo not given in full)
- IC50 [1]: > 50 µM

SMILES: C=C1C(=O)O[C@H]2[C@H]1CC/C(C(=O)OCCCOc1ccc(-c3cc(=S)ss3)cc1)=C\CC[C@@]1(C)O[C@@H]21
- IC50 [1]: 2.09 µM

SMILES: C=C1C(=O)O[C@H]2[C@H]1C(COC(=O)c1cc3ccccc3cc1C(=O)Oc1ccc(-c3cc(=S)ss3)cc1)C/C=C\CC[C@@]1(C)O[C@@H]21 (stereo not given in full)
- IC50 [1]: 7.58 µM

SMILES: C=C1C(=O)O[C@H]2[C@H]1C(COC(=O)CCCCC(=O)O)C/C=C\CC[C@@]1(C)O[C@@H]21 (stereo not given in full)
- IC50 [1]: > 50 µM

SMILES: C=C1C(=O)O[C@H]2[C@H]1CC/C(C(=O)Oc1ccc(-c3cc(=S)ss3)cc1)=C\CC[C@@]1(C)O[C@@H]21
- IC50 [1]: 1.39 µM

SMILES: C=C1C(=O)O[C@H]2[C@H]1CC/C(CO)=C\CC[C@@]1(C)O[C@@H]21
- IC50 [1]: 3.84 µM
- IC50 [2]: 7.45 µM
- IC50 [3]: 20 µM
- IC50 [4]: 6.76 µM
- IC50 [5]: 5.88 µM

SMILES: C=C1C(=O)O[C@H]2[C@H]1C(COC(=O)CC(C)(C)CC(=O)O)C/C=C\CC[C@@]1(C)O[C@@H]21 (stereo not given in full)
- IC50 [1]: 36.4 µM

SMILES: C=C1C(=O)O[C@H]2[C@H]1C(COC(=O)CCC(=O)Oc1ccc(-c3cc(=S)ss3)cc1)C/C=C\CC[C@@]1(C)O[C@@H]21 (stereo not given in full)
- IC50 [1]: 4.34 µM

SMILES: C=C1C(=O)O[C@H]2[C@H]1C(COC(=O)c1ccccc1C(=O)Oc1ccc(-c3cc(=S)ss3)cc1)C/C=C\CC[C@@]1(C)O[C@@H]21 (stereo not given in full)
- IC50 [1]: 2.91 µM

SMILES: C=C1C(=O)O[C@H]2[C@H]1C(COC(=O)CCCC(=O)Oc1ccc(-c3cc(=S)ss3)cc1)C/C=C\CC[C@@]1(C)O[C@@H]21 (stereo not given in full)
- IC50 [1]: 8.52 µM

SMILES: C=C1C(=O)O[C@H]2[C@H]1C(COC(=O)CC1(CC(=O)O)CCCC1)C/C=C\CC[C@@]1(C)O[C@@H]21 (stereo not given in full)
- IC50 [1]: 35.8 µM

SMILES: C=C1C(=O)O[C@H]2[C@H]1C(COC(=O)CC1(CC(=O)O)CCCCC1)C/C=C\CC[C@@]1(C)O[C@@H]21 (stereo not given in full)
- IC50 [1]: 12.8 µM

SMILES: C=C1C(=O)O[C@H]2[C@H]1CC/C(C(=O)OCCCCOc1ccc(-c3cc(=S)ss3)cc1)=C\CC[C@@]1(C)O[C@@H]21
- IC50 [1]: 2.47 µM

SMILES: Oc1ccc(-c2cc(=S)ss2)cc1
- IC50 [1]: > 50 µM

SMILES: C=C1C(=O)O[C@H]2[C@H]1C(COC(=O)/C=C/c1ccc(OCc3ccc(-c4cc(=S)ss4)cc3)cc1)C/C=C\CC[C@@]1(C)O[C@@]21C (stereo not given in full)
- IC50 [1]: 6.11 µM

SMILES: C=C1C(=O)O[C@H]2[C@H]1C(COC(=O)CC(C)(C)CC(=O)Oc1ccc(-c3cc(=S)ss3)cc1)C/C=C\CC[C@@]1(C)O[C@@H]21 (stereo not given in full)
- IC50 [1]: 1.68 µM

SMILES: C=C1C(=O)O[C@H]2[C@H]1C(COC(=O)CC1(CC(=O)Oc3ccc(-c4cc(=S)ss4)cc3)CCCCC1)C/C=C\CC[C@@]1(C)O[C@@H]21 (stereo not given in full)
- IC50 [1]: 1.76 µM

SMILES: C=C1C(=O)O[C@H]2[C@H]1C(COC(=O)CC1(CC(=O)Oc3ccc(-c4cc(=S)ss4)cc3)CCCC1)C/C=C\CC[C@@]1(C)O[C@@H]21 (stereo not given in full)
- IC50 [1]: 2.11 µM

SMILES: C=C1C(=O)O[C@H]2[C@H]1C(COC(=O)c1cc3ccccc3cc1C(=O)O)C/C=C\CC[C@@]1(C)O[C@@H]21 (stereo not given in full)
- IC50 [1]: 4.96 µM

SMILES: C=C1C(=O)O[C@H]2[C@H]1C(COC(=O)/C=C/c1ccccc1OCCc1ccc(-c3cc(=S)ss3)cc1)C/C=C\CC[C@@]1(C)O[C@@]21C (stereo not given in full)
- IC50 [1]: 1.07 µM
- IC50 [2]: 1.06 µM
- IC50 [3]: 0.37 µM
- IC50 [4]: 1.81 µM
- IC50 [5]: 2.85 µM
- Activity [6]: Toxic
- Activity [7]: Dose-Dependent Effect
- Activity [8]: Dose-Dependent Effect
- Activity [9]: Dose-Dependent Effect
- Activity [10]: Dose-Dependent Effect
- Activity [11]: Dose-Dependent Effect
- Activity [12]: Dose-Dependent Effect
- Activity [13]: 5.8%
- Activity [14]: 4.3%
- Activity [15]: 4.87%
- Activity [16]: 11.32%
- Activity [17]: 52.61%
- Activity [18]: 6.85%
- Activity [19]: 7.9%
- Activity [20]: 15.46%
- Activity [21]: 20.32%
- Activity [22]: 49.35%
- Activity [23]: Dose-Dependent Effect
- Activity [24]: Dose-Dependent Effect
- Activity [25]: Dose-Dependent Effect
- Activity [26]: Dose-Dependent Effect
- inhibition [27]: Active
- inhibition [28]: Active
- inhibition [29]: inactive
- inhibition [30]: Active
- inhibition [31]: Active
- inhibition [32]: Active

SMILES: C=C1C(=O)O[C@H]2[C@H]1CC/C(C(=O)OCCOc1ccc(-c3cc(=S)ss3)cc1)=C\CC[C@@]1(C)O[C@@H]21
- IC50 [1]: 2.35 µM

SMILES: C=C1C(=O)O[C@H]2[C@H]1C(COC(=O)CCCCC(=O)Oc1ccc(-c3cc(=S)ss3)cc1)C/C=C\CC[C@@]1(C)O[C@@H]21 (stereo not given in full)
- IC50 [1]: 6.2 µM

SMILES: C=C1C(=O)O[C@H]2[C@H]1C(COC(=O)c1ccccc1C(=O)O)C/C=C\CC[C@@]1(C)O[C@@H]21 (stereo not given in full)
- IC50 [1]: > 50 µM
